Laboratory results from patent publication US5294603A, “Pharmaceutical compositions containing didemnins” (The Board of Trustees of The University of Illinois, priority 1992, dated 1994).
Where two headings read alike, the source gives them in different places. Numbered stars: 1 amine (or outer) side, 2 acyl side, 3 side chain; on linkers, the order of the positions; unused ones are H or OH. Bridge positions count the residues as written; N and C are the ends. Square brackets hold non-standard residues; d marks the D form. Peptide text beside a SMILES is read from it. * marks the point of attachment. X1 = CC[C@H](C)[C@@H](N[*:1])[C@@H](O)CC(=O)O[C@H](C(=O)[C@H](C)C(=O)[*:2])C(C)C; X9 = CCC(C)C(N[*:1])C(O)CC(=O)OC(C(=O)C(C)C(=O)[*:2])C(C)C; NMeY = CN[CH](Cc1ccc(O)cc1)C(=O)O; NMeCha = CN[C@@H](CC1CCCCC1)C(=O)O; Stearoyl = CCCCCCCCCCCCCCCCCC(=O)*; X8 = CC(C(=O)*)N1C(=O)c2ccccc2C1=O; dNMeL = CN[C@H](CC(C)C)C(=O)O; pGlu = O=C1CC[C@@H](C(=O)O)N1; Lauroyl = CCCCCCCCCCCC(=O)*; NMeL = CN[CH](CC(C)C)C(=O)O; Octanoyl = CCCCCCCC(=O)*; Hexanoyl = CCCCCC(=O)*; Pentanoyl = CCCCC(=O)*; Lac = C[C@H](O)C(=O)O

Legend:
Visna virus (VIV) = assay type: cell-based
[1] = test system: L1210 murine leukemia cells; details: Table 9
L1210 [2] = details: for cytotoxicity (result in words): Table 1 footnote and text
L1210 [3] = assay: L1210 cytotoxicity, inhibition at fixed doses (Table 10); assay type: cell-based, murine
[4] = dose 25 ng/mL, tested 4/18/1991
[5] = dose 250 ng/mL, tested 4/18/1991
[6] = dose 25 ng/mL, tested 4/22/1990
[7] = dose 250 ng/mL, tested 4/22/1990

With `CC[C@H](C)[C@H]1NC(=O)[C@@H](NC(=O)[C@@H](CC(C)C)N(C)C(=O)[C@@H]2CCCN2C(=O)[C@H](C)OC(=O)[C@H](CCC(N)=O)NC(=O)[C@@H]2CCC(=O)N2)[C@@H](C)OC(=O)[C@H](Cc2ccc(OC)cc2)N(C)C(=O)[C@@H]2CCCN2C(=O)[C@H](CC(C)C)NC(=O)[C@@H](C)C(=O)[C@H](C(C)C)OC(=O)C[C@@H]1O` [Didemnin M (12), Didemnin M] ([pGlu]Q[Lac]P[dNMeL]T[X1]LP[NMeY](Me); ester 6-C) the “VIV Protection” value (Visna virus (VIV)) was -73 and the “Cytotoxicity L1210 IC50” value [1] was 0.4 ng/mL.

`CCCCCC(=O)N(C)[C@H](CC(C)C)C(=O)N[C@@H]1C(=O)N[C@H]([C@@H](C)CC)[C@@H](O)CC(=O)O[C@@H](C(C)C)C(=O)[C@H](C)C(=O)N[C@@H](CC(C)C)C(=O)N2CCC[C@H]2C(=O)N(C)[C@@H](Cc2ccc(OC)cc2)C(=O)O[C@@H]1C` [N^a -Hexanoyl-, N-hexanoyl didemnin A] (Hexanoyl-[dNMeL]T[X1]LP[NMeY](Me); ester 2-C) was tested, and the “cytotoxicity (result in words)” value (L1210 [2]) was “retained the cytotoxicity of didemnin B”, the “Cytotoxicity percent L1210 inhibition” value (L1210 [2]; dose 5 ng/mL) was 73% and the “Cytotoxicity percent L1210 inhibition” value (L1210 [2]; dose 12.5 ng/mL) was 89%. The “Cytotoxicity percent L1210 inhibition” value (L1210 [2]; dose 25 ng/mL) was 92%.

For `CCCCCCCC(=O)N(C)[C@H](CC(C)C)C(=O)N[C@@H]1C(=O)N[C@H]([C@@H](C)CC)[C@@H](O)CC(=O)O[C@@H](C(C)C)C(=O)[C@H](C)C(=O)N[C@@H](CC(C)C)C(=O)N2CCC[C@H]2C(=O)N(C)[C@@H](Cc2ccc(OC)cc2)C(=O)O[C@@H]1C` [N^a -Octanoyl-, N-octanoyl didemnin A] (Octanoyl-[dNMeL]T[X1]LP[NMeY](Me); ester 2-C), the “cytotoxicity (result in words)” value (L1210 [2]) was “retained the cytotoxicity of didemnin B”, the “Cytotoxicity percent L1210 inhibition” value (L1210 [2]; dose 5 ng/mL) was 89% and the “Cytotoxicity percent L1210 inhibition” value (L1210 [2]; dose 12.5 ng/mL) was 93%. The “Cytotoxicity percent L1210 inhibition” value (L1210 [2]; dose 25 ng/mL) was 94%.

In the case of `CCCCC(=O)N(C)[C@H](CC(C)C)C(=O)N[C@@H]1C(=O)N[C@H]([C@@H](C)CC)[C@@H](O)CC(=O)O[C@@H](C(C)C)C(=O)[C@H](C)C(=O)N[C@@H](CC(C)C)C(=O)N2CCC[C@H]2C(=O)N(C)[C@@H](Cc2ccc(OC)cc2)C(=O)O[C@@H]1C` [N^a -Pentanoyl-, N-pentanoyl didemnin A] (Pentanoyl-[dNMeL]T[X1]LP[NMeY](Me); ester 2-C), the “cytotoxicity (result in words)” value (L1210 [2]) is reported as “retained the cytotoxicity of didemnin B”, the “Cytotoxicity percent L1210 inhibition” value (L1210 [2]; dose 5 ng/mL) is reported as 56% and the “Cytotoxicity percent L1210 inhibition” value (L1210 [2]; dose 12.5 ng/mL) is reported as 81%. For the same compound, the “Cytotoxicity percent L1210 inhibition” value (L1210 [2]; dose 25 ng/mL) was 91%.

With `CCC(C)C1NC(=O)C(NC(=O)C(CC(C)C)N(C)C(=O)C2CCCN2C(=O)C(C)N2C(=O)c3ccccc3C2=O)C(C)OC(=O)C(Cc2ccc(OC)cc2)N(C)C(=O)C2CCCN2C(=O)C(CC(C)C)NC(=O)C(C)C(=O)C(C(C)C)OC(=O)CC1O` (centres unmarked) [Phthalimidedidemnin B (82), Phthalimide didemnin B] (X8-P[NMeL]T[X9]LP[NMeY](Me); ester 3-C; configuration not given here) the “Inhibition (%)” value (L1210 [3]; [4]) was 98% and the “Inhibition (%)” value (L1210 [3]; [5]) was 99%.

For `CC[C@H](C)[C@H]1NC(=O)[C@@H](NC(=O)[C@@H](CC(C)C)NC)[C@@H](C)OC(=O)[C@H](CC2CCCCC2)N(C)C(=O)[C@@H]2CCCN2C(=O)[C@H](CC(C)C)NC(=O)[C@@H](C)C(=O)[C@H](C(C)C)OC(=O)C[C@@H]1O` [[H6 -N-MePhe^5] didemnin A (117), [Hexahydro-N-MePhe^5]didemnin A] (H-[dNMeL]T[X1]LP[NMeCha]; ester 2-C), the “Inhibition (%)” value (L1210 [3]; [4]) was 25%, the “Inhibition (%)” value (L1210 [3]; [6]) was 75% and the “Inhibition (%)” value (L1210 [3]; [5]) was 94%. For the same compound, the “Inhibition (%)” value (L1210 [3]; [7]) was 98%.

In the case of `CC[C@H](C)[C@H]1NC(=O)[C@@H](NC(=O)[C@@H](CC(C)C)N(C)C(=O)[C@@H]2CCCN2C(=O)[C@H](C)O)[C@@H](C)OC(=O)[C@H](CC2CCCCC2)N(C)C(=O)[C@@H]2CCCN2C(=O)[C@H](CC(C)C)NC(=O)[C@@H](C)C(=O)[C@H](C(C)C)OC(=O)C[C@@H]1O` [[H6 -N-MePhe^5] didemnin B (118), [Hexahydro-N-MePhe^5]didemnin B], the “Inhibition (%)” value (L1210 [3]; [4]) is reported as 99%, the “Inhibition (%)” value (L1210 [3]; [6]) is reported as 99% and the “Inhibition (%)” value (L1210 [3]; [5]) is reported as 99%. The “Inhibition (%)” value (L1210 [3]; [7]) was 99%.

With `CC[C@H](C)[C@H]1NC(=O)[C@@H](NC(=O)[C@@H](CC(C)C)NC)[C@@H](C)OC(=O)[C@H](CC2CCC(OC)CC2)N(C)C(=O)[C@@H]2CCCN2C(=O)[C@H](CC(C)C)NC(=O)[C@@H](C)C(=O)[C@H](C(C)C)OC(=O)C[C@@H]1O` (some centres unmarked) [[H6 Me2 Tyr^5]didemnin A (115), [HexahydroMe2 Tyr^5]didemnin A] the “Inhibition (%)” value (L1210 [3]; [6]) was 17% and the “Inhibition (%)” value (L1210 [3]; [7]) was 94%.

For `CC[C@H](C)[C@H]1NC(=O)[C@@H](NC(=O)[C@@H](CC(C)C)N(C)C(=O)[C@@H]2CCCN2C(=O)[C@H](C)O)[C@@H](C)OC(=O)[C@H](CC2CCC(OC)CC2)N(C)C(=O)[C@@H]2CCCN2C(=O)[C@H](CC(C)C)NC(=O)[C@@H](C)C(=O)[C@H](C(C)C)OC(=O)C[C@@H]1O` (some centres unmarked) [[H6 Me2 Tyr^5]didemnin B (116), [HexahydroMe2 Tyr^5]didemnin B], the “Inhibition (%)” value (L1210 [3]; [4]) was 99%, the “Inhibition (%)” value (L1210 [3]; [6]) was 98% and the “Inhibition (%)” value (L1210 [3]; [5]) was 99%. The “Inhibition (%)” value (L1210 [3]; [7]) was 99%.

With `CCCCCCCCCCCC(=O)N(C)[C@H](CC(C)C)C(=O)N[C@@H]1C(=O)N[C@H]([C@@H](C)CC)[C@@H](O)CC(=O)O[C@@H](C(C)C)C(=O)[C@H](C)C(=O)N[C@@H](CC(C)C)C(=O)N2CCC[C@H]2C(=O)N(C)[C@@H](Cc2ccc(OC)cc2)C(=O)O[C@@H]1C` [lauroyl, N-lauroyl didemnin A] (Lauroyl-[dNMeL]T[X1]LP[NMeY](Me); ester 2-C) the “cytotoxicity (result in words)” value (L1210 [2]) was “inactive”.

`CC[C@H](C)[C@H]1NC(=O)[C@@H](NC(=O)[C@@H](CC(C)C)N(C)C(=O)[C@@H]2CCCN2C(=O)[C@H](C)OC(=O)[C@@H]2CCC(=O)N2)[C@@H](C)OC(=O)[C@H](Cc2ccc(OC)cc2)N(C)C(=O)[C@@H]2CCCN2C(=O)[C@H](CC(C)C)NC(=O)[C@@H](C)C(=O)[C@H](C(C)C)OC(=O)C[C@@H]1O` [pGlu-didemnin B (113), O-Pyroglutamyldidemnin B] ([pGlu][Lac]P[dNMeL]T[X1]LP[NMeY](Me); ester 5-C) was tested, and the “VIV Protection” value (Visna virus (VIV)) was -65 and the “Cytotoxicity L1210 IC50” value [1] was 0.4 ng/mL.

In the case of `CCCCCCCCCCCCCCCCCC(=O)N(C)[C@H](CC(C)C)C(=O)N[C@@H]1C(=O)N[C@H]([C@@H](C)CC)[C@@H](O)CC(=O)O[C@@H](C(C)C)C(=O)[C@H](C)C(=O)N[C@@H](CC(C)C)C(=O)N2CCC[C@H]2C(=O)N(C)[C@@H](Cc2ccc(OC)cc2)C(=O)O[C@@H]1C` [stearoyl, N-stearoyl didemnin A] (Stearoyl-[dNMeL]T[X1]LP[NMeY](Me); ester 2-C), the “cytotoxicity (result in words)” value (L1210 [2]) is reported as “inactive”.

For Didemnin D [Didemnin D (19)], the “VIV Protection” value (Visna virus (VIV)) was -53 and the “Cytotoxicity L1210 IC50” value [1] was 0.5 ng/mL.

For Didemnin E [Didemnin E (20)], the “VIV Protection” value (Visna virus (VIV)) was -73 and the “Cytotoxicity L1210 IC50” value [1] was 0.5 ng/mL.

Didemnin X [Didemnin X (10)] was tested, and the “VIV Protection” value (Visna virus (VIV)) was -25 and the “Cytotoxicity L1210 IC50” value [1] was 2 ng/mL.

For Didemnin Y [Didemnin Y (11)], the “VIV Protection” value (Visna virus (VIV)) was -33 and the “Cytotoxicity L1210 IC50” value [1] was 2 ng/mL.

For Isodidemnin A1 [Isodidemnin A1 (1a)], the “VIV Protection” value (Visna virus (VIV)) was less than 0 and the “Cytotoxicity L1210 IC50” value [1] was 10 ng/mL.

“N-(CH3 ONsu)didemnin A [N-(CH3 ONsu)-didemnin A (111)]” was tested, and the “VIV Protection” value (Visna virus (VIV)) was -43.

For N-palmitoyl didemnin A, the “cytotoxicity (result in words)” value (L1210 [2]) was “inactive”.

Nordidemnin A [Nordidemnin A (21)] was tested, and the “VIV Protection” value (Visna virus (VIV); Table 9, 0.1 μg/mL) was less than 0% and the “Cytotoxicity L1210 IC50” value [1] was 30 ng/mL.

[AnhydroIst^1 ]Phthalimide didemnin B was tested, and the “Inhibition (%)” value (L1210 [3]; [4]) was 81% and the “Inhibition (%)” value (L1210 [3]; [5]) was 99%.
